{
  "source": "patent US20030161854A1",
  "about": "“Synergistic formulations” (priority 2000, published 2003)",
  "test_system": "1st instar larvae of Lucilia cuprina",
  "assay": "In-vitro investigation for possible potentiation between spinosad and ivermectin in sheep blowfly larvae (treated chromatography papers, fractions of LC90)",
  "format": "in vivo",
  "conditions": "48 hours",
  "procedure": "Forty to 50 newly hatched 1st instar larvae of Lucilia cuprina were washed with sheep serum onto chromatography papers treated with serial dilutions of ivermectin or spinosad as set out below. After 48 hours numbers of live and dead larvae were counted. The LC90 was calculated for spinosad and ivermectin. Larvae were exposed to that concentration of spinosad or ivermectin and ½, ¼ and ⅛ of the LC90. In addition larvae were exposed to 1:1, 1:4, 4:1, 9:1 and 1:9 combinations of each chemical with each concentration of chemical being a fraction of the LC90.\nThere were 19 treatment groups in the study (plus an untreated control group):\nD 12-14: Four:one rates of Ivermectin:Spinosad—(0.8×, 0.2×), (0.4×, 0.1×) and (0.2×, 0.05×)\nE 15-17: Four:one rates of Spinosad:lvermectin—(0.8×, 0.2×), (0.4×, 0.1×) and (0.2×, 0.05×)\nEach group was tested on 4 replicates of 50 flies and the number of dead flies per replicate was recorded.\nThe method of generalized linear models for overdispersed binomial data using the logistic link function was used for an analysis of the 19 treatment groups. The analysis estimated dose-response lines (on the logarithmic dose scale) for each chemical or combination. The lines for each separate chemical were used to predict the efficacy (on the logistic scale) of the combinations assuming independent action, i.e. with no synergism. These were compared with the efficacy observed or predicted from the dose-response lines for the combinations.",
  "data": [
    {"substance": "spinosad", "values": [
      {"measurement": "Mean efficacy (Dose-response) %", "setting": "0.125x LC90", "value": 9.8, "unit": "%"},
      {"measurement": "Mean efficacy (Dose-response) Logit", "setting": "0.125x LC90", "value": "−2.21 ± 0.28"},
      {"measurement": "Mean efficacy (Sample estimate) %", "setting": "0.125x LC90", "value": 16.0, "unit": "%"},
      {"measurement": "Mean efficacy (Sample estimate) Logit", "setting": "0.125x LC90", "value": "−1.66 ± 0.30"},
      {"measurement": "Mean efficacy (Dose-response) %", "setting": "0.25x LC90", "value": 30.7, "unit": "%"},
      {"measurement": "Mean efficacy (Dose-response) Logit", "setting": "0.25x LC90", "value": "−0.81 ± 0.17"},
      {"measurement": "Mean efficacy (Sample estimate) %", "setting": "0.25x LC90", "value": 22.0, "unit": "%"},
      {"measurement": "Mean efficacy (Sample estimate) Logit", "setting": "0.25x LC90", "value": "−1.27 ± 0.27"},
      {"measurement": "Mean efficacy (Dose-response) %", "setting": "0.5x LC90", "value": 64.1, "unit": "%"},
      {"measurement": "Mean efficacy (Dose-response) Logit", "setting": "0.5x LC90", "value": "0.58 ± 0.16"},
      {"measurement": "Mean efficacy (Sample estimate) %", "setting": "0.5x LC90", "value": 63.0, "unit": "%"},
      {"measurement": "Mean efficacy (Sample estimate) Logit", "setting": "0.5x LC90", "value": "0.53 ± 0.23"},
      {"measurement": "Mean efficacy (Dose-response) %", "setting": "1.0x LC90", "value": 87.9, "unit": "%"},
      {"measurement": "Mean efficacy (Dose-response) Logit", "setting": "1.0x LC90", "value": "1.98 ± 0.27"},
      {"measurement": "Mean efficacy (Sample estimate) %", "setting": "1.0x LC90", "value": 91.5, "unit": "%"},
      {"measurement": "Mean efficacy (Sample estimate) Logit", "setting": "1.0x LC90", "value": "2.38 ± 0.39"}
    ]},
    {"substance": "ivermectin", "values": [
      {"measurement": "Mean efficacy (Dose-response) %", "setting": "0.125x LC90", "value": 1.6, "unit": "%"},
      {"measurement": "Mean efficacy (Dose-response) Logit", "setting": "0.125x LC90", "value": "−4.14 ± 0.48"},
      {"measurement": "Mean efficacy (Sample estimate) %", "setting": "0.125x LC90", "value": 3.0, "unit": "%"},
      {"measurement": "Mean efficacy (Sample estimate) Logit", "setting": "0.125x LC90", "value": "−3.48 ± 0.64"},
      {"measurement": "Mean efficacy (Dose-response) %", "setting": "0.25x LC90", "value": 13.2, "unit": "%"},
      {"measurement": "Mean efficacy (Dose-response) Logit", "setting": "0.25x LC90", "value": "−1.88 ± 0.26"},
      {"measurement": "Mean efficacy (Sample estimate) %", "setting": "0.25x LC90", "value": 11.0, "unit": "%"},
      {"measurement": "Mean efficacy (Sample estimate) Logit", "setting": "0.25x LC90", "value": "−2.09 ± 0.35"},
      {"measurement": "Mean efficacy (Dose-response) %", "setting": "0.5x LC90", "value": 59.4, "unit": "%"},
      {"measurement": "Mean efficacy (Dose-response) Logit", "setting": "0.5x LC90", "value": "0.38 ± 0.18"},
      {"measurement": "Mean efficacy (Sample estimate) %", "setting": "0.5x LC90", "value": 59.5, "unit": "%"},
      {"measurement": "Mean efficacy (Sample estimate) Logit", "setting": "0.5x LC90", "value": "0.38 ± 0.22"},
      {"measurement": "Mean efficacy (Dose-response) %", "setting": "1.0x LC90", "value": 93.3, "unit": "%"},
      {"measurement": "Mean efficacy (Dose-response) Logit", "setting": "1.0x LC90", "value": "2.64 ± 0.34"},
      {"measurement": "Mean efficacy (Sample estimate) %", "setting": "1.0x LC90", "value": 94.0, "unit": "%"},
      {"measurement": "Mean efficacy (Sample estimate) Logit", "setting": "1.0x LC90", "value": "2.75 ± 0.46"}
    ]}
  ]
}
